ChEMBL document CHEMBL6127016, “Design and synthesis of dual functional NBD-fluorophore-incorporated naphthalene diimide derivatives as G-quadruplex ligands” (Bioorg Med Chem Lett, 2024)
The source made the active and inactive calls. The calls are words filed in the database; no cut-off is given here.

Assays:
MIA PaCa-2 = assay: Cytotoxicity against human MIA PaCa-2 cells assessed as inhibition of cell growth by CellTiter-Glo assay; type: functional, cell-based
Quadruplex DNA [1] = assay: Binding affinity to human telomeric G-quadruplex HT21 DNA assessed as increase in fluorescence intensity at 5 uM by fluorescence emission spectra analysis; type: nucleic-acid assay
Quadruplex DNA [2] = assay: Binding affinity to human telomeric G-quadruplex HT21 DNA assessed as dissociation constant by fluorescence titration spectra analysis; type: nucleic-acid assay
Quadruplex DNA [3] = assay: Binding affinity to human telomeric G-quadruplex HT21 DNA assessed as increase in CD signal at 15 uM at 290 nm wavelength by circular dichroism spectroscopic analysis; type: nucleic-acid assay
Quadruplex DNA [4] = assay: Binding affinity to human telomeric G-quadruplex HT21 DNA assessed as increase in CD signal at 15 uM at 235 nm wavelength by circular dichroism spectroscopic analysis; type: nucleic-acid assay
Quadruplex DNA [5] = assay: Binding affinity to human telomeric G-quadruplex HT21 DNA assessed as increase in CD signal at 15 uM at 250 nm wavelength by circular dichroism spectroscopic analysis; type: nucleic-acid assay

| Activity (Quadruplex DNA [1]) | Kd (Quadruplex DNA [2]) | Activity (Quadruplex DNA [3]) | Activity (Quadruplex DNA [4]) | Activity (Quadruplex DNA [5]) | SMILES | IC50 (MIA PaCa-2) |
| --- | --- | --- | --- | --- | --- | --- |
| inactive |  |  |  |  | O=C1c2ccc3c4c(c(NCC5CCN(c6ccc([N+](=O)[O-])c7nonc67)CC5)cc(c24)C(=O)N1CCCN1CCOCC1)C(=O)N(CCCN1CCOCC1)C3=O | 359 nM |
|  |  |  |  |  | O=C1c2ccc3c4c(c(NCCN5CCCC5)cc(c24)C(=O)N1CCCN1CCOCC1)C(=O)N(CCCN1CCOCC1)C3=O | 9.6 nM |
| Active | 600 nM |  |  |  | O=C(CNc1cc2c3c(ccc4c3c1C(=O)N(CCCN1CCOCC1)C4=O)C(=O)N(CCCN1CCOCC1)C2=O)NCC1CCN(c2ccc([N+](=O)[O-])c3nonc23)CC1 | 364 nM |
| Active | 1720 nM | Active | inactive | inactive | O=C1c2ccc3c4c(c(NCCN5CCN(c6ccc([N+](=O)[O-])c7nonc67)CC5)cc(c24)C(=O)N1CCCN1CCOCC1)C(=O)N(CCCN1CCOCC1)C3=O | 77.9 nM |
